ChEMBL document CHEMBL3991601, “The target landscape of clinical kinase drugs” (Science, 2017)
Activity calls are given as the source filed them.

Experiments:
[1] = target: T1, Serine/threonine-protein kinase Chk1 (Homo sapiens, UniProt O14757)
T1 sequence (O14757 whole entry): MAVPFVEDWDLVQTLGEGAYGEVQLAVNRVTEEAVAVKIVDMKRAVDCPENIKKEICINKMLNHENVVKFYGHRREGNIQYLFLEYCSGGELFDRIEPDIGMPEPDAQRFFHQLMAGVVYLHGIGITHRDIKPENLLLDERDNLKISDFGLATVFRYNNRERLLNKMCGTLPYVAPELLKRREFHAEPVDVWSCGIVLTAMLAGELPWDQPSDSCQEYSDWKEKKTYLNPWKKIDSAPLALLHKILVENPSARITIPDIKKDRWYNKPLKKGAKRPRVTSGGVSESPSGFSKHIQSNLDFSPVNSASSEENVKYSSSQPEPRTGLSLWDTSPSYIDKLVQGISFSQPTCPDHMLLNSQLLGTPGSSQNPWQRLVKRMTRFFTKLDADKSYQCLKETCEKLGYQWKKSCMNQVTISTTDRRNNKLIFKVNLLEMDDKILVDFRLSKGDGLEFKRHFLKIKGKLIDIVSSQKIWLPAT

[2] = target: T2, Tyrosine--tRNA ligase, cytoplasmic (Homo sapiens, UniProt P54577)
T2 sequence (P54577 whole entry): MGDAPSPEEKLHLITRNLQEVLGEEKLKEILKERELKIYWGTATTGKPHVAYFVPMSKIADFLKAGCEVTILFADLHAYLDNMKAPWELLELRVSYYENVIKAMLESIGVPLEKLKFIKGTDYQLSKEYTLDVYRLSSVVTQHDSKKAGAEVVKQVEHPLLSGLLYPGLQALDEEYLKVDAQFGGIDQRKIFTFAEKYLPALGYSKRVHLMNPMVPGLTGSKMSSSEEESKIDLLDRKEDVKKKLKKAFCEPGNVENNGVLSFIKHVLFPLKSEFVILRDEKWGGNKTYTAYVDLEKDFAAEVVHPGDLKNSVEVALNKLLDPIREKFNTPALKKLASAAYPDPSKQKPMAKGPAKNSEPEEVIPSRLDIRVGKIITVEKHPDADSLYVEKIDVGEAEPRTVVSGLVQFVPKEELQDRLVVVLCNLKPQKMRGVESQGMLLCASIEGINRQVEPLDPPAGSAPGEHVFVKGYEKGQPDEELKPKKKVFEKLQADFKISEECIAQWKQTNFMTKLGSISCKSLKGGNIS

[3] = target: NADH dehydrogenase [ubiquinone] 1 alpha subcomplex subunit 13 (Homo sapiens, UniProt Q9P0J0)
[4] = target: T3, Cytochrome c1, heme protein, mitochondrial (Homo sapiens, UniProt P08574)
T3 sequence (P08574 whole entry): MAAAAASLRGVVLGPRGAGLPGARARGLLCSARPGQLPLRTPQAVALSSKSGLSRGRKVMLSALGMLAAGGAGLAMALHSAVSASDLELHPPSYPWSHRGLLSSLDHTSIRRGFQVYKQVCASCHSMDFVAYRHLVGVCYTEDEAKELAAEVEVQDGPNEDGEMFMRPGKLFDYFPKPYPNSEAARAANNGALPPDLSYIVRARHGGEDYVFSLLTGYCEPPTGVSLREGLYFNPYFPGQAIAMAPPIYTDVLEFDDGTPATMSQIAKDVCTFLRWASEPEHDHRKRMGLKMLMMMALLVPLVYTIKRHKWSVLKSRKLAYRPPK

[5] = target: Mitogen-activated protein kinase 1 (Homo sapiens, UniProt P28482)
Ephrin type-A receptor 1 = target: T4, Ephrin type-A receptor 1 (Homo sapiens, UniProt P21709)
T4 sequence (P21709 whole entry): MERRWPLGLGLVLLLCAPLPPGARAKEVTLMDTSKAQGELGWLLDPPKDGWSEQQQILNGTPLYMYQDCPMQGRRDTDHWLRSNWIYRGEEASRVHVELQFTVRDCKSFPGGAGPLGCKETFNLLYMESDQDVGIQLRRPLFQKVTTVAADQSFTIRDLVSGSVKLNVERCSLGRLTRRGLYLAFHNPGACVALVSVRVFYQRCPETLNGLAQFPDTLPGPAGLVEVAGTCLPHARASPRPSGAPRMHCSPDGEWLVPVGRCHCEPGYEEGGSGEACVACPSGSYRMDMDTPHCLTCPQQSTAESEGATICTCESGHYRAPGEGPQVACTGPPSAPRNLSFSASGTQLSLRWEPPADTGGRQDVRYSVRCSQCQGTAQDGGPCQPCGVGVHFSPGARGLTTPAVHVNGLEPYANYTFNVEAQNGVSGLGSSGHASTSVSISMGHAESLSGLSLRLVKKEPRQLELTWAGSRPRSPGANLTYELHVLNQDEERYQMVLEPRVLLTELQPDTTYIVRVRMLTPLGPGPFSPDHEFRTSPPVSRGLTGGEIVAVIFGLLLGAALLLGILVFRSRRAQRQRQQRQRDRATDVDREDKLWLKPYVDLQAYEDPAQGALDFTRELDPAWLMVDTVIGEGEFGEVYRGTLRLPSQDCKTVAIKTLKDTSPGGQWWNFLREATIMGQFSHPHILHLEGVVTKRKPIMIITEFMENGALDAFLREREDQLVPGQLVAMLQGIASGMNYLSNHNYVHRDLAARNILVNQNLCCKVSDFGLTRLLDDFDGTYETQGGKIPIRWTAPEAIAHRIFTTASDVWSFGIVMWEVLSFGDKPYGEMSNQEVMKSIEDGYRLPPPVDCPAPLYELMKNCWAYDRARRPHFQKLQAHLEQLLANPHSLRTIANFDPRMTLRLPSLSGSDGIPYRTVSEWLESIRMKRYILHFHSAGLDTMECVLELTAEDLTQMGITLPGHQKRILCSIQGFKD
Note: in the data inactive means no Kd found up to 30 µM.

Sequence of NADH dehydrogenase [ubiquinone] 1 alpha subcomplex subunit 13 (Q9P0J0 whole entry, one chain of several): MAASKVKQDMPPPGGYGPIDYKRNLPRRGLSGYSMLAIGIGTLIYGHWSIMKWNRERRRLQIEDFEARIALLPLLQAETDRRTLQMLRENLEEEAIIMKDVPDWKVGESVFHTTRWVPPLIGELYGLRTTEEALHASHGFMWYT
Sequence of Mitogen-activated protein kinase 1 (P28482 whole entry): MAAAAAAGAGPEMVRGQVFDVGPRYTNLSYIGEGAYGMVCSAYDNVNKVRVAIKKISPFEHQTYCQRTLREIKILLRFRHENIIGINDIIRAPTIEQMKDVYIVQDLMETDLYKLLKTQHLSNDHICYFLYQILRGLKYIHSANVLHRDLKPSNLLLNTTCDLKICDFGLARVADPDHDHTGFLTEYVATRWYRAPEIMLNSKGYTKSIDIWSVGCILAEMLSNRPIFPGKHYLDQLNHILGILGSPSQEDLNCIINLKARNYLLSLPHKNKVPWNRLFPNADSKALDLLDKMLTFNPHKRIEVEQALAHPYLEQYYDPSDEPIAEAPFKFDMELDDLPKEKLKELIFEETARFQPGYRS

| SMILES | Kd [1] | Kd [2] | Kd [3] | Kd [4] | Kd [5] | Kd (Ephrin type-A receptor 1) |
| --- | --- | --- | --- | --- | --- | --- |
| NC1(c2ccc(-c3nc4ccn5c(=O)[nH]nc5c4cc3-c3ccccc3)cc2)CCC1 [MK-2206] | > 30 µM (inactive) | > 30 µM (inactive) | > 30 µM (inactive) | > 30 µM (inactive) | > 30 µM (inactive) | > 30 µM (inactive) |
| CN(C[C@@H]1COCCO1)S(=O)(=O)Nc1ccc2ccc3ncc(-c4cnn(C)c4)cc3c(=O)c2c1 [MK-2461] | > 30 µM (inactive) | > 30 µM (inactive) | > 30 µM (inactive) | > 30 µM (inactive) | > 30 µM (inactive) | > 30 µM (inactive) |
| Cn1cc(-c2cnc3ccc4ccc(CS(=O)(=O)NCc5ccccn5)cc4c(=O)c3c2)cn1 [MK-8033] | > 30 µM (inactive) | > 30 µM (inactive) | > 30 µM (inactive) | > 30 µM (inactive) | > 30 µM (inactive) | > 30 µM (inactive) |
| FC(F)(F)c1ccc(/C=C/c2nc(COc3ccc(CCCCn4ccnn4)cc3)co2)cc1 [MUBRITINIB] | > 30 µM (inactive) | > 30 µM (inactive) | > 30 µM (inactive) | > 30 µM (inactive) | > 30 µM (inactive) | > 30 µM (inactive) |
| CCOc1cc2ncc(C#N)c(Nc3ccc(F)c(Cl)c3)c2cc1NC(=O)/C=C/CN(C)C [PELITINIB] | > 30 µM (inactive) | > 30 µM (inactive) | > 30 µM (inactive) | > 30 µM (inactive) | > 30 µM (inactive) | > 30 µM (inactive) |
| CCCCCCCCCCCCCCCCCCOP(=O)([O-])OC1CC[N+](C)(C)CC1 [PERIFOSINE] | > 30 µM (inactive) | > 30 µM (inactive) | > 30 µM (inactive) | > 30 µM (inactive) | > 30 µM (inactive) | > 30 µM (inactive) |
| Cc1nc(Nc2n[nH]c3c2CN(C(=O)N[C@H](CN(C)C)c2ccccc2)C3(C)C)c2sccc2n1 [PF-03758309] | 0.21 µM (active) | > 30 µM (inactive) | > 30 µM (inactive) | > 30 µM (inactive) | 1.96 µM (active) | > 30 µM (inactive) |
| CO[C@H]1C[C@@H]2CC[C@@H](C)[C@@](O)(O2)C(=O)C(=O)N2CCCC[C@H]2C(=O)O[C@H]([C@H](C)C[C@@H]2CC[C@@H](OP(C)(C)=O)[C@H](OC)C2)CC(=O)[C@H](C)/C=C(\C)[C@@H](O)[C@@H](OC)C(=O)[C@H](C)C[C@H](C)/C=C/C=C/C=C/1C [RIDAFOROLIMUS] | > 30 µM (inactive) | > 30 µM (inactive) | > 30 µM (inactive) | > 30 µM (inactive) | > 30 µM (inactive) | > 30 µM (inactive) |
| N#CC1(c2ccc(NC(=O)c3cccnc3NCc3ccncc3)cc2)CCCC1 [RIVOCERANIB] | > 30 µM (inactive) | > 30 µM (inactive) | > 30 µM (inactive) | > 30 µM (inactive) | > 30 µM (inactive) | > 30 µM (inactive) |
| O=c1[nH]ccc2cc(OC3CCNCC3)ccc12 [SAR-407899 FREE BASE] | > 30 µM (inactive) | > 30 µM (inactive) | > 30 µM (inactive) | > 30 µM (inactive) | > 30 µM (inactive) | > 30 µM (inactive) |
| Cc1cc(Nc2ncnc3ccc(NC4=NC(C)(C)CO4)cc23)ccc1Oc1ccn2ncnc2c1 [TUCATINIB] | > 30 µM (inactive) | > 30 µM (inactive) | > 30 µM (inactive) | > 30 µM (inactive) | > 30 µM (inactive) | > 30 µM (inactive) |

Results, then the compound that gave them:

| Kd [1] | Kd [2] | Kd [3] | Kd [4] | Kd [5] | Kd (Ephrin type-A receptor 1) | SMILES |
| --- | --- | --- | --- | --- | --- | --- |
| 1.75 µM (active) | > 30 µM (inactive) | > 30 µM (inactive) | > 30 µM (inactive) | > 30 µM (inactive) | > 30 µM (inactive) | CCS(=O)(=O)c1cccc(-c2cc(C(=O)NC3CCN(C)CC3)c(C)c3[nH]c4ncc(C)cc4c23)c1 [TAK-901] |
| > 30 µM (inactive) | > 30 µM (inactive) | > 30 µM (inactive) | > 30 µM (inactive) | > 30 µM (inactive) | > 30 µM (inactive) | CO[C@H]1C[C@@H]2CC[C@@H](C)[C@@](O)(O2)C(=O)C(=O)N2CCCC[C@H]2C(=O)O[C@H]([C@H](C)C[C@@H]2CC[C@@H](OC(=O)C(C)(CO)CO)[C@H](OC)C2)CC(=O)[C@H](C)/C=C(\C)[C@@H](O)[C@@H](OC)C(=O)[C@H](C)C[C@H](C)/C=C/C=C/C=C/1C [TEMSIROLIMUS] |
| > 30 µM (inactive) | > 30 µM (inactive) | > 30 µM (inactive) | > 30 µM (inactive) | > 30 µM (inactive) | 0.008 µM (active) | COc1cc2c(Nc3ccc(Cl)c(Cl)c3F)ncnc2cc1OC[C@@H]1C[C@@H]2CN(C)C[C@@H]2C1 [TESEVATINIB] |
| > 30 µM (inactive) | > 30 µM (inactive) | > 30 µM (inactive) | > 30 µM (inactive) | > 30 µM (inactive) | > 30 µM (inactive) | O=C(Cc1ccc(-c2ccc(OCCN3CCOCC3)cc2)cn1)NCc1ccccc1 [TIRBANIBULIN] |
| > 30 µM (inactive) | > 30 µM (inactive) | > 30 µM (inactive) | > 30 µM (inactive) | > 30 µM (inactive) | 1.07 µM | C[C@@H](NC(=O)c1ncnc(N)c1Cl)c1ncc(C(=O)Nc2cc(C(F)(F)F)c(Cl)cn2)s1 [TOVORAFENIB] |
| > 30 µM (inactive) | > 30 µM (inactive) | > 30 µM (inactive) | > 30 µM (inactive) | > 30 µM (inactive) | 0.005 µM (active) | CC(C)c1cc(CNc2nc(Nc3cc(C4CC4)[nH]n3)cc(N3CCN(C)CC3)n2)on1 [XL-228] |
| > 30 µM (inactive) | > 30 µM (inactive) | > 30 µM (inactive) | > 30 µM (inactive) | > 30 µM (inactive) | > 30 µM (inactive) | C[C@@H](N)c1ccc(C(=O)Nc2ccnc3[nH]ccc23)cc1 [Y-39983] |
| > 30 µM (inactive) | > 30 µM (inactive) | > 30 µM (inactive) | > 30 µM (inactive) | > 30 µM (inactive) | > 30 µM (inactive) | CN1C/C=C/CCOc2cccc(c2)-c2ccnc(n2)Nc2cccc(c2)C1 [ZOTIRACICLIB] |
